# Assays:
# Assay type in all cases: cell-based
# HS3ST4 = HS3ST4 reporter cell line, HTS of FDA-approved drug library; conditions: a listed drug is a confirmed inhibitor
# Source text: (§1) Using a stable cell line with promoter luciferase reporter of the HS-biosynthetic gene EXT1, the EXT1 and other HS-biosynthetic gene reporter cell lines were screened with an FDA-approved drug library. (FIG. 1; FIG. 2)
# EXT1 = EXT1 promoter luciferase reporter stable cell line, HTS of FDA-approved drug library (EC-50, CCK-8); conditions: for confirmed candidates when screened with respect to EXT1: EC-50 and CCK-8, 10 μL; for Inhibition Candidate, confirmation at lower concentration: EXT1 cell line, 2nd confirmatory screen, a listed drug is a confirmed inhibitor
# Source text: as §1
# HS3ST1 = HS3ST1 reporter cell line, HTS of FDA-approved drug library (EC-50, CCK-8); conditions: a listed drug is a confirmed inhibitor
# Source text: FIGS. 13A-13C show EC-50 and CCK-8 experiments on HS3ST1 using bortezomib.
# FIGS. 14A-14C show EC-50 and CCK-8 experiments on HS3ST1 using zinc pyrithione.
# FIGS. 15A-15B show EC-50 and CCK-8 experiments on HS3ST1 using artesunate.
# as §1
compound,measurement,setting,value
"COc1ccc(/C=C\c2cc(OC)c(OC)c(OC)c2)cc1OP(=O)(O)O [Frosbretabullin, Fosbretabulin]","Inhibition Candidate, confirmation at lower concentration",HS3ST4,D5- Frosbretabullin
"C=C1CC[C@H](O)C/C1=C/C=C1\CCC[C@]2(C)[C@@H]([C@H](C)CCCC(C)C)CC[C@@H]12 [Vitamin D3, cholecalciferol]",confirmed candidates when screened with respect to EXT1,EXT1,confirmed candidates
same,"Inhibition Candidate, confirmation at lower concentration",EXT1,D5- Vitamin D3
same,"Inhibition Candidate, confirmation at lower concentration",EXT1; listed as vitamin D3,confirmed to inhibit at low doses
CC(C)C[C@H](NC(=O)[C@H](Cc1ccccc1)NC(=O)c1cnccn1)B(O)O [Bortezomib],"Inhibition Candidate, confirmation at lower concentration",HS3ST1,B3- Bortezomib
C[C@H]1[C@H](OC(=O)CCC(=O)O)O[C@@H]2O[C@@]3(C)CC[C@H]4[C@H](C)CC[C@@H]1[C@@]24OO3 [Artesunate],"Inhibition Candidate, confirmation at lower concentration",HS3ST1,A1- Artesunate
Zinc pyrithione,"Inhibition Candidate, confirmation at lower concentration",HS3ST1,D6- Zinc Pyrithione
"C=C1/C(=C\C=C2/CCC[C@]3(C)[C@@H]([C@H](C)CCCC(C)(C)O)CC[C@@H]23)C[C@@H](O)C[C@@H]1O [Calcitriol, 1, 25-dihydroxycholecalciferol]",confirmed candidates when screened with respect to EXT1,EXT1,confirmed candidates
same,"Inhibition Candidate, confirmation at lower concentration",EXT1,B2- Calcitriol
O=C(Nc1ccc([N+](=O)[O-])cc1Cl)c1cc(Cl)ccc1O [Niclosamide],"Inhibition Candidate, confirmation at lower concentration",HS3ST4,A6- Niclosamide

# — patent US20240316067A1, “METHODS OF DECREASING HEPARAN SULFATE EXPRESSION USING EXT1 INHIBITORS” (priority 2023, published 2024)
